Patent US20200368247A1, “CENICRIVIROC FOR THE TREATMENT OF FIBROSIS” (Tobira Therapeutics, Inc., priority 2014, published 2020)
Several values for one entry are separate records, joined by “and”; a condition that tells them apart may be missing. Equal values may be shown once.

Experiments:
NASH mice = experiment: STAM mouse model of Non-alcoholic Steatohepatitis, anti-NASH/fibrosis effects, week 9; assay type: in vivo
Procedure: NASH was induced in male mice by a single injection of […] streptozotocin 2 days after birth (causing impaired glucose control), followed by a high fat diet from 4 weeks of age. […] Animals were sacrificed at 9 weeks of age, and biochemical, gene expression, and histologic evaluations of the liver were conducted.
This in vivo efficacy study was performed to examine the effects of Cenicriviroc in the STAM™ mouse model of Non-alcoholic Steatohepatitis.

CCR5 = CCR5 (Homo sapiens, UniProt P51681); experiment: CCR5 receptor occupancy / RANTES-induced CCR5 internalization in PBMCs, flow cytometry; assay type: cell-based; conditions: PBMCs
Sequence of CCR5 (P51681 whole entry): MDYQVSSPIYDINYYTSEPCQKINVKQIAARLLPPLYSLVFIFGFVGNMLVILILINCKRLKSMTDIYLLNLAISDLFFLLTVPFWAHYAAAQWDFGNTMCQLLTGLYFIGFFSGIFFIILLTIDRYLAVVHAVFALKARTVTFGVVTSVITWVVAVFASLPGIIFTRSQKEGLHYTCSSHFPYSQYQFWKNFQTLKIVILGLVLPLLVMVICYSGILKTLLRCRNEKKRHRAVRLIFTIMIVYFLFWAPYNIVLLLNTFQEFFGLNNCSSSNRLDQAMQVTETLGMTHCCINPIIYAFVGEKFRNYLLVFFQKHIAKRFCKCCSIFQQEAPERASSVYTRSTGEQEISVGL
Procedure: The capacity of each drug to inhibit CCR5 or CCR2 internalization was evaluated. Cell-surface expression of CCR5 and CCR2 was assessed by flow cytometry, and fluorescence values were converted into molecules of equivalent soluble fluorescence (MESF).

[1] = test system: male CD-1 mice with unilateral ureter occlusion; experiment: Mouse UUO model of renal fibrosis; assay type: in vivo
Procedure: Test animals were allocated to weight-matched treatment groups on the day prior to the surgical procedure (Day −1). Male CD-1 mice (N=51; age, 7-8 weeks) underwent either sham surgery or total ligation of the right ureter, i.e. UUO, via aseptic laparotomy (FIG. 12). […] Another group received the anti-transforming growth factor TGF-β1 antibody, compound 1D11 (positive control) at 3 mg/kg/day from Days −1 to 4, injected intraperitoneally once daily, and vehicle control from Days 0 to 5. […] On Day 5, animals were anaesthetised, blood and tissues were collected prior to sacrifice.
Study endpoints included: a) body and kidney weights; b) fibrosis in obstructed kidney evaluated via histological quantitative image analysis of picrosirius red staining (ten images/depth/kidney obtained and assessed in a blinded fashion using light microscopy [at 200×] to enable sampling of 60-70% of the renal cortical area) and quantified by a composite Collagen Volume Fraction (CVF [% total area imaged]) score expressed as the average positive stain across three anatomically distinct ([…] apart) tissue sections, or depths, from the obstructed kidney; c) hydroxyproline content of frozen renal cortical tissue biopsies as assessed by biochemical analyses; d) mRNA expression of profibrotic and inflammatory biomarkers (including MCP-1, Collagen 1a1, Collagen 3a1, TGF-β1, Fibronectin-1, α-smooth muscle actin (α-SMA) and connective tissue growth factor-1 (CTGF-1); assessed via Luminex® (Life Technologies™, Carlsbad, Calif., USA) assay with relative expression normalised to HPRT (hypoxanthine phosphoribosyltransferase).
Data are expressed as mean±standard error of mean (SEM). Statistical analyses were performed using GraphPad Prism® (GraphPad Software, Inc., San Diego, Calif., USA). Treatment differences between sham-surgery+vehiclecontrol and UUO+vehicle-control groups, and between UUO+vehicle-control and UUO+compound-1D11 (positive control) groups, were analysed by unpaired t-Test. Treatment differences between UUO+vehicle-control and CVC-dose groups were analysed by one-way ANOVA (analysis of variance) with Dunnett's test (post-hoc).

[2] = test system: RANTES-induced Ca2+ mobilization; experiment: RANTES-induced Ca2+ mobilization; assay type: cell-based
[3] = Study 201 safety (adverse events, laboratory); assay type: in vivo
Procedure: Participants were required to be antiretroviral treatment-experienced, CCR5 antagonist-naive, with HIV-1 RNA levels of at least 5000 copies/mL and CD4+ cell counts of at least 250 cells/mm^3 was performed.
There were no deaths, SAEs, or other significant AEs, and there were no discontinuations because of an AE. Most treatment-emergent AEs were mild or moderate in severity. […] The most common (≥10%) treatment-emergent AEs in this study were nausea (18.5%), diarrhea (16.7%), headache (14.8%), and fatigue (11.0%).
There were 6 subjects with ALT and/or AST elevations in the 25 mg (2 subjects), 50 mg (2 subjects), 100 mg (1 subject), and 150 mg (1 subject) dose groups, and 1 subject with an AST elevation in the placebo group during the observation period. All elevations were Grade 1, were isolated except in 2 subjects (both in the 50-mg dose group) who had more than a single elevation, and resolved without sequelae. […] The AST elevations observed in subjects in the 100 mg and 150 mg dose groups during treatment (observed in 1 subject in each dose group), returned to normal values during continuation of treatment.

HIV-1 = experiment: Study 201 drug resistance testing; assay type: in vivo, human; conditions: Baseline, Day 7, Day 40; subjects with evaluable samples
Procedure: In Study 201, drug resistance testing was performed at Baseline, Day 7, and Day 40 (or at the “Early Termination” visit, if applicable).

[4] = Chronic (3- and 9-month) monkey toxicity studies; assay type: in vivo; conditions: 1000 mg/kg/day, 3- and 9-month monkey studies
[5] = CVC-high 100 mg/kg/day, week 9, listed as Cenicriviroc
[6] = CVC-low 20 mg/kg/day, week 9, listed as Cenicriviroc
[7] = CVC 7 and 20 mg/kg/day, compound 1D11

CCCCOCCOc1ccc(-c2ccc3c(c2)/C=C(/C(=O)Nc2ccc([S@@+]([O-])Cc4cncn4CCC)cc2)CCCN3CC(C)C)cc1 [CVC, (S)-8-[4-(2-Butoxyethoxy)phenyl]-1-isobutyl-N-(4-{[(1-propyl-1H-imidazol-5-yl)methyl]sulfinyl}phenyl)-1,2,3,4-tetrahydro-1-benzazocine-5-carboxamide]
decrease of collagen type 1 mRNA in whole liver lysates (NASH mice; 20 and 100 mg/kg/day, week 9): 27-37% | Body weight (NASH mice; CVC-high 100 mg/kg/day, week 9): 18.7 ± 0.9 g | Modified Sirius red-positive area (perivascular space subtracted) (NASH mice; CVC-high 100 mg/kg/day, week 9): 0.20% and 0.20±0.06% | Plasma MCP-1 (NASH mice; CVC-high 100 mg/kg/day, week 9): 91 ± 14 pg/mL | Body weight (NASH mice; [5]): 18.7 ± 0.9 g | Modified Sirius red-positive area (perivascular space subtracted) (NASH mice; [5]): 0.20 ± 0.06% | Plasma MCP-1 (NASH mice; [5]): 91 ± 14 pg/mL | Hepatocyte ballooning score 0, number of mice (NASH mice; CVC-high, week 9, n = 6): 1 | Hepatocyte ballooning score 1, number of mice (NASH mice; CVC-high, week 9, n = 6): 2 | Hepatocyte ballooning score 2, number of mice (NASH mice; CVC-high, week 9, n = 6): 3 | Lobular inflammation score 1, number of mice (NASH mice; CVC-high, week 9, n = 6): 3 | Lobular inflammation score 2, number of mice (NASH mice; CVC-high, week 9, n = 6): 3 | Steatosis score 0, number of mice (NASH mice; CVC-high, week 9, n = 6): 1 | Steatosis score 1, number of mice (NASH mice; CVC-high, week 9, n = 6): 5 | Body weight (NASH mice; CVC-low 20 mg/kg/day, week 9): 19.5 ± 2.0 g | Liver hydroxyproline (μg/mg total protein) (NASH mice; CVC-low 20 mg/kg/day, week 9): 0.63±0.05 μg/mg total protein | Modified Sirius red-positive area (perivascular space subtracted) (NASH mice; CVC-low 20 mg/kg/day, week 9): 0.29% and 0.29±0.14% | Plasma ALT (U/L) (NASH mice; CVC-low 20 mg/kg/day, week 9): 58±12 U/L | Plasma MCP-1 (NASH mice; CVC-low 20 mg/kg/day, week 9): 68 ± 16 pg/mL | Plasma MIP-1β (NASH mice; CVC-low 20 mg/kg/day, week 9): 18 ± 2 pg/mL | Body weight (NASH mice; [6]): 19.5 ± 2.0 g | Liver hydroxyproline (μg/mg total protein) (NASH mice; [6]): 0.63 ± 0.05 μg/mg total protein | Modified Sirius red-positive area (perivascular space subtracted) (NASH mice; [6]): 0.29 ± 0.14% | Plasma ALT (U/L) (NASH mice; [6]): 58 ± 12 U/L | Plasma MCP-1 (NASH mice; [6]): 68 ± 16 pg/mL | Plasma MIP-1β (NASH mice; [6]): 18 ± 2 pg/mL | Hepatocyte ballooning score 1, number of mice (NASH mice; CVC-low, week 9, n = 6): 3 | Hepatocyte ballooning score 2, number of mice (NASH mice; CVC-low, week 9, n = 6): 3 | Lobular inflammation score 1, number of mice (NASH mice; CVC-low, week 9, n = 6): 3 | Lobular inflammation score 2, number of mice (NASH mice; CVC-low, week 9, n = 6): 3 | Steatosis score 1, number of mice (NASH mice; CVC-low, week 9, n = 6): 6 | Modified positive area (%), per mouse (NASH mice; Cenicriviroc-high, individual mice 301-306): 0.20% | Modified positive area (%), per photo (NASH mice; Cenicriviroc-high, individual mice 301-306, photos 1-5): 0.41% and 0.09% (2×) and 0.23% (2×) and 0.17% (2×) and 0.28% (2×) and 0.22% (2×) and 0.08% (3×) and 0.05% and 0.32% and 0.07% (3×) and 0.16% and 0.20% (2×) and 0.68% and 0.27% and 0.12% and 0.11% and 0.67% and 0.26% and 0.06% and 0.10% | Liver hydroxyproline (μg/mg total protein) (NASH mice; week 9): 0.62±0.09 μg/mg total protein | Plasma ALT (U/L) (NASH mice; week 9): 51±13 U/L and 52±13 U/L | Plasma MIP-1β (NASH mice; week 9): 20 ± 4 pg/mL | Liver hydroxyproline (μg/mg total protein) (NASH mice; week 9, listed as Cenicriviroc): 0.62 ± 0.09 μg/mg total protein | Plasma ALT (U/L) (NASH mice; week 9, listed as Cenicriviroc): 52 ± 13 U/L | Plasma MIP-1β (NASH mice; week 9, listed as Cenicriviroc): 20 ± 4 pg/mL | prevention of RANTES-induced CCR5 internalization (CCR5): at lower effective concentrations than MVC | effect on body weight ([1]; CVC 7 mg/kg/day, compound 1D11 3 mg/kg/day, Day 5): no effect on body weight | tolerability in UUO mice ([1]; CVC 100 mg/kg/day): terminated early due to moribundity | effect on obstructed kidney hydroxyproline content ([1]; CVC 7 and 20 mg/kg/day): Neither dose of CVC tested affected UUO-induced increases | Collagen 1a1, Collagen 3a1, TGF-β1 and Fibronectin-1 mRNA expression vs UUO+vehicle-control [1, 7]: did not reach statistical significance | MCP-1, α-SMA and CTGF-1 mRNA expression vs UUO+vehicle-control [1, 7]: did not have significant effects | RANTES-induced Ca2+ mobilization [2]: blocked | subjects with ALT and/or AST elevations (Grade 1) ([3]; 25 mg): 2 subjects | subjects with ALT and/or AST elevations (Grade 1) ([3]; 50 mg): 2 subjects | subjects with ALT and/or AST elevations (Grade 1) ([3]; 100 mg): 1 subject | subjects with ALT and/or AST elevations (Grade 1) ([3]; 150 mg): 1 subject | tolerability ([3]; 25 to 150 mg once daily, 10 days): generally well tolerated at the doses studied | drug susceptibility of virus (HIV-1): fully susceptible | inflammation in clinical pathology parameters or tissue incl. liver [4]: No indication of inflammation
